Experimental data from patent US20250304551A1 (SHANGHAI APEIRON THERAPEUTICS COMPANY LIMITED, priority 2022, published 2025).

Tests used:
HT29 cells = test: CyQuant cell proliferation activity test, HT29; type: cell-based; conditions: Homo sapiens, HT-29, 72 h, HT29 2000 cells per well, 3 days incubation, initial concentration 3000 nM, IC50 by XLFIT, read-out: HT-29 Cell Viability_IC50_nM
Experimental: Materials and Cells: HT29 cells were purchased from Nanjing Cobioer Biosciences Co., Ltd.; RPM-1640 medium, fetal bovine serum, Trypsin-EDTA (0.25%), DMSO, 96-well plates, and CyQuant reagents were purchased from ThermoFisher (USA).
Cell Culture: Culture HT29 cells with RPMI-1640 containing 10% fetal bovine serum under the condition of 37° C. and 5% CO2. Only cells in the logarithmic growth phase can be used for the test.
Cell Proliferation Activity Test: Use the CyQuant reagent to detect the proliferation inhibitory activity of compounds on HT29 cells. Adjust the cell density and inoculate 100 μL per well into the 96-well plate (HT29 at 2000 cells per well), then incubate overnight under the condition of 37° C. and […]. Add compounds of various target concentrations (initial concentration of 3000 nM, 3-fold dilution, 9 concentration gradients), and make the DMSO content 0.20%. Incubate the cell plates at 37° C. and 5% CO2 for 3 days. Incubate with CyQuant reagent for 1 h, read the plate by Envision, and calculate IC50 using XLFIT.

OVCAR3 cells = test: Cell proliferation activity test, OVCAR3 (CyQUANT Direct); type: cell-based; conditions: Homo sapiens, OVCAR-3, 72 h, 3 days incubation, CyQUANT fluorescence detection, read-out: OVCAR-3 Cell Viability_IC50_nM
Method in brief: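 OVCAR3 cells seeded overnight, then exposed to compounds at 0-10 μM final (0.20% DMSO) for 3 days at 37° C. Cell number read by CyQUANT Direct fluorescence after 60 min at 37° C.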

[1] = target: T1, Human KIF18A (amino acid sequence 1-417) (Homo sapiens, UniProt Q8NI77); test: Enzyme activity detection experiment (ADP-Glo, KIF18A with tubulin and ATP); type: biochemical; conditions: tubulin 60 μg/mL, ATP 25 μM, KIF18A protein 2.5 nM, 120 minutes at ambient temperature, ADP-Glo chemiluminescence
T1 construct: purchased Viva Biotech (Shanghai) Ltd
Method in brief: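 KIF18A (2.5 nM) was incubated with tubulin (60 μg/mL as added), ATP (25 μM) and serially diluted compound for 120 min at ambient temperature. ADP formed was detected by ADP-Glo: reagent for 30 min, then detection reagent for 30 min in the dark, with chemiluminescence read-out.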

T1 sequence (Q8NI77 1-417): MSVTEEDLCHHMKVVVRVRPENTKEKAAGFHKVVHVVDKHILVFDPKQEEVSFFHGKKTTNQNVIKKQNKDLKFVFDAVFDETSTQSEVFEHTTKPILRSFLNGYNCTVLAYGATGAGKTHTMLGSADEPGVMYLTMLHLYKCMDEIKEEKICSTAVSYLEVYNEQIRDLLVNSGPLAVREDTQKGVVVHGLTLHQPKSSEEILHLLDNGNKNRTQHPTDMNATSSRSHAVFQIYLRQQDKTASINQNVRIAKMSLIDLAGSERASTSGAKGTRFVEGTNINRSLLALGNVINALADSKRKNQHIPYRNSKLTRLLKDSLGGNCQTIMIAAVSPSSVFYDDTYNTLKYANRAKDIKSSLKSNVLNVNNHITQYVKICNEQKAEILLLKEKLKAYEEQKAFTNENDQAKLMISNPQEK
T1 sequence (Q2XVP4 whole entry partner): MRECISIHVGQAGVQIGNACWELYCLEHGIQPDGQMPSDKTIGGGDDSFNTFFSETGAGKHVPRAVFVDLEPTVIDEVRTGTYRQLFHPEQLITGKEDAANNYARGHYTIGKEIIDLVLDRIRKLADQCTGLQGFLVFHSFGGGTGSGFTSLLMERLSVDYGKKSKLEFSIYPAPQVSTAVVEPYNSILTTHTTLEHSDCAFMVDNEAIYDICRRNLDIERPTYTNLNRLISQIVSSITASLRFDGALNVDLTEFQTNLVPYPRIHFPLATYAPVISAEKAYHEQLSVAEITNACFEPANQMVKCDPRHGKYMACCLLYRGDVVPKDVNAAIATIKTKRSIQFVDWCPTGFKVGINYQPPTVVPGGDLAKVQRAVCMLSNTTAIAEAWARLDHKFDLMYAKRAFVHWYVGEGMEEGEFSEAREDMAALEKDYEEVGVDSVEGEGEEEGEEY
T1 sequence (P02554 whole entry partner): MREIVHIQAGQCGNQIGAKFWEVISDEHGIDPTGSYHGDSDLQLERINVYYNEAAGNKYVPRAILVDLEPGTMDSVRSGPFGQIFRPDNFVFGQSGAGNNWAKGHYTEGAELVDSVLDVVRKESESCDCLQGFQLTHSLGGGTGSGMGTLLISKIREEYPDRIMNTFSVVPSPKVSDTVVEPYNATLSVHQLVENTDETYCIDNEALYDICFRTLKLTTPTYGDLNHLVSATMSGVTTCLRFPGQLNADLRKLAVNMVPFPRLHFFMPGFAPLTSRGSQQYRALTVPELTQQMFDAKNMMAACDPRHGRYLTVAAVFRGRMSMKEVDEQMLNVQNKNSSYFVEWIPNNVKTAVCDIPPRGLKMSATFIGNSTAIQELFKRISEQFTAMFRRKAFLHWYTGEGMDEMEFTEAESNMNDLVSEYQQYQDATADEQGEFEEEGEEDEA

| SMILES | IC50 (HT29 cells) [µM] | IC50 (OVCAR3 cells) [µM] | IC50 [1] [µM] |
| --- | --- | --- | --- |
| Cc1cc(-c2cn(-c3ccc(NS(=O)(=O)CCO)cc3N3CCC4(CC3)CC4)nn2)nc(N2CCCCC2)n1 [Example 41, 2-hydroxy-N-(4-(4-(6-methyl-2-(piperidin-1-yl)pyrimidin-4-yl)-1H-1,2,3-triazol-1-yl)-3-(6-azaspiro[2.5]octan-6-yl)phenyl)ethanesulfonamide] | 0.014 | 0.015 | 0.044 |
| Cc1cc(-c2cn(-c3ccc(NS(=O)(=O)CCO)cc3N3CCC4(CC3)CC4)nn2)nc(N2CCOCC2)n1 [Example 42, 2-hydroxy-N-(4-(4-(6-methyl-2-morpholinopyrimidin-4-yl)-1H-1,2,3-triazol-1-yl)-3-(6-azaspiro[2.5]octan-6-yl)phenyl)ethanesulfonamide] | 0.015 | 0.012 | 0.019 |
| Cc1cc(-c2cn(-c3ccc(NS(=O)(=O)CCO)cc3N3CCC4(CC3)CC4)nn2)nc(N2CCO[C@@H](C)C2)n1 [Example 43, (S)-2-hydroxy-N-(4-(4-(6-methyl-2-(2-methylmorpholino)pyrimidin-4-yl)-1H-1,2,3-triazol-1-yl)-3-(6-azaspiro[2.5]octan-6-yl)phenyl)ethane-1-sulfonamide] | 0.018 | 0.016 | 0.044 |
| Cc1cc(-c2cn(-c3ccc(NS(=O)(=O)CCO)cc3N3CCC4(CC3)CC4)nn2)nc(N2C[C@@H](C)O[C@@H](C)C2)n1 [Example 44, N-(4-(4-(2-((2R,6S)-2,6-dimethylmorpholino)-6-methylpyrimidin-4-yl)-1H-1,2,3-triazol-1-yl)-3-(6-azaspiro[2.5]octan-6-yl)phenyl)-2-hydroxyethane-1-sulfonamide] | 0.012 | 0.014 | 0.022 |
| Cc1cc(-c2cn(-c3ccc(NS(=O)(=O)CCO)cc3N3CCC4(CC3)CC4)nn2)nc(N2CCOCC2C)n1 (stereo not drawn) [Example 45] | 0.013 | 0.022 | 0.088 |
| Cc1cc(-c2cn(-c3ccc(NS(=O)(=O)CCO)cc3N3CCC4(CC3)CC4)nn2)nc(N2[C@H](C)COC[C@@H]2C)n1 [Example 46, N-(4-(4-(2-((3S,5R)-3,5-dimethylmorpholin)-6-methylpyrimidin-4-yl)-1H-1,2,3-triazol-1-yl)-3-(6-azaspiro[2.5]octan-6-yl)phenyl)2-hydroxyethanesulfonamide] | 0.039 | 0.014 | 0.151 |
| Cc1cc(-c2cn(-c3ccc(NS(=O)(=O)CCO)cc3N3CCC4(CC3)CC4)nn2)nc(N2C3CCC2COC3)n1 [Example 48, N-(4-(4-(2-(3-oxa-8-azabicyclo[3.2.1]octan-8-yl)-6-methylpyrimidin-4-yl)-1H-1,2,3-triazol-1-yl)-3-(6-azaspiro[2.5]octan-6-yl)phenyl)-2-hydroxyethane-1-sulfonamide] | 0.014 | 0.017 | 0.022 |
| Cc1cc(-c2cn(-c3ccc(NS(=O)(=O)CCO)cc3N3CCC4(CC3)CC4)nn2)nc(N2C3COCC2C3)n1 [Example 49, N-(4-(4-(2-(3-oxa-6-azabicyclo[3.1.1]heptan-6-yl)-6-methylpyrimidin-4-yl)-1H-1,2,3-triazol-1-yl)-3-(6-azaspiro[2.5]octan-6-yl)phenyl)-2-hydroxyethane-1-sulfonamide] | 0.031 | 0.054 | 0.061 |
| Cc1cc(-c2cn(-c3ccc(NS(=O)(=O)CCO)cc3N3CCC4(CC3)CC4)nn2)nc(N2[C@H](C)CC(F)(F)C[C@@H]2C)n1 [Example 50, N-(4-(4-(2-((2S,6R)-4,4-difluoro-2,6-dimethylpiperidin-1-yl)-6-methylpyrimidin-4-yl)-1H-1,2,3-triazol-1-yl)-3-(6-azaspiro[2.5]octan-6-yl)phenyl)-2-hydroxyethane-1-sulfonamide] | 0.245 | 0.222 | 1.05 |
| COc1cc(-c2cn(-c3ccc(NS(=O)(=O)CCO)cc3N3CCC4(CC3)CC4)nn2)nc(N2CCC(F)(F)CC2)n1 [Example 51, N-(4-(4-(2-(4,4-difluoropiperidin-1-yl)-6-methoxypyrimidin-4-yl)-1H-1,2,3-triazol-1-yl)-3-(6-azaspiro[2.5]octan-6-yl)phenyl)-2-hydroxyethanesulfonamide] | 0.022 | 0.024 | 0.131 |
| O=S(=O)(CCO)Nc1ccc(-n2cc(-c3cc(O)nc(N4CCC(F)(F)CC4)n3)nn2)c(N2CCC3(CC2)CC3)c1 [Example 52, N-(4-(4-(2-(4,4-difluoropiperidin-1-yl)-6-hydroxypyrimidin-4-yl)-1H-1,2,3-triazol-1-yl)-3-(6-azaspiro[2.5]octan-6-yl)phenyl)-2-hydroxyethane-1-sulfonamide] | 0.299 | 0.11 | 0.025 |
| COc1cc(-c2cn(-c3ccc(NS(=O)(=O)CCO)cc3N3CCC4(CC3)CC4)nn2)nc(N2[C@H](C)COC[C@@H]2C)n1 [Example 53, N-(4-(4-(2-((3S,5R)-3,5-dimethylmorpholino)-6-methoxypyrimidin-4-yl)-1H-1,2,3-triazol-1-yl)-3-(6-azaspiro[2.5]octan-6-yl)phenyl)-2-hydroxyethane-1-sulfonamide] | 0.047 | 0.035 | 0.296 |

The next lines start with the values.

| IC50 (HT29 cells) [µM] | IC50 (OVCAR3 cells) [µM] | IC50 [1] [µM] | SMILES |
| --- | --- | --- | --- |
| 0.073 | 0.084 | 0.277 | CN(C)c1cc(-c2cn(-c3ccc(NS(=O)(=O)CCO)cc3N3CCC4(CC3)CC4)nn2)nc(N2CCC(F)(F)CC2)n1 [Example 54, N-(3-{6-azaspiro[2.5]octan-6-yl}-4-{4-[2-(4,4-difluoropiperidin-1-yl)-6-(dimethylamino)pyrimidin-4-yl]-1H-1,2,3-triazol-1-yl}phenyl)-2-hydroxyethane-1-sulfonamide] |
| 0.003 | 0.003 | 0.04 | Nc1cc(-c2cn(-c3ccc(NS(=O)(=O)CCO)cc3N3CCC4(CC3)CC4)nn2)nc(N2CCC(F)(F)CC2)n1 [Example 55, N-(4-{4-[6-amino-2-(4,4-difluoropiperidin-1-yl)pyrimidin-4-yl]-1H-1,2,3-triazol-1-yl}-3-{6-azaspiro[2.5]octan-6-yl}phenyl)-2-hydroxyethane-1-sulfonamide] |
| 0.008 | 0.009 | 0.11 | CNc1cc(-c2cn(-c3ccc(NS(=O)(=O)CCO)cc3N3CCC4(CC3)CC4)nn2)nc(N2CCC(F)(F)CC2)n1 [Example 56, N-(3-{6-azaspiro[2.5]octan-6-yl}-4-{4-[2-(4,4-difluoropiperidin-1-yl)-6-(methylamino)pyrimidin-4-yl]-1H-1,2,3-triazol-1-yl}phenyl)-2-hydroxyethane-1-sulfonamide] |
| 0.0045 | 0.008 | 0.072 | O=S(=O)(CCO)Nc1ccc(-n2cc(-c3cc(NCCO)nc(N4CCC(F)(F)CC4)n3)nn2)c(N2CCC3(CC2)CC3)c1 [Example 57, N-(3-{6-azaspiro[2.5]octan-6-yl}-4-{4-[2-(4,4-difluoropiperidin-1-yl)-6-[(2-hydroxyethyl)amino]pyrimidin-4-yl]-1H-1,2,3-triazol-1-yl}phenyl)-2-hydroxyethane-1-sulfonamide] |
| 0.286 | 0.224 | 0.779 | O=S(=O)(CCO)Nc1ccc(-n2cc(-c3cc(NC4CCOCC4)nc(N4CCC(F)(F)CC4)n3)nn2)c(N2CCC3(CC2)CC3)c1 [Example 58, N-(3-{6-azaspiro[2,5]octan-6-yl}-4-{4-[2-(4,4-difluoropiperidin-1-yl)-6-[(oxan-4-yl)amino]pyrimidin-4-yl]-1H-1,2,3-triazol-1-yl}phenyl)-2-hydroxyethane-1-sulfonamide] |
| 0.034 | 0.026 | 0.437 | O=S(=O)(CCO)Nc1ccc(-n2cc(-c3cc(NCc4ccccn4)nc(N4CCC(F)(F)CC4)n3)nn2)c(N2CCC3(CC2)CC3)c1 [Example 59, N-(3-{6-azaspiro[2.5]octan-6-yl}-4-{4-[2-(4,4-difluoropiperidin-1-yl)-6-{[(pyridine-2-yl)methyl]amino}pyrimidin-4-yl]-1H-1,2,3-triazol-1-yl}phenyl)-2-hydroxyethane-1-sulfonamide] |
| 0.041 | 0.029 | 0.433 | O=S(=O)(CCO)Nc1ccc(-n2cc(-c3cc(NCc4cccnc4)nc(N4CCC(F)(F)CC4)n3)nn2)c(N2CCC3(CC2)CC3)c1 [Example 60, N-(3-{6-azaspiro[2.5]octan-6-yl}-4-{4-[2-(4,4-difluoropiperidin-1-yl)-6-{[(pyridine-3-yl)methyl]amino}pyrimidin-4-yl]-1H-1,2,3-triazol-1-yl}phenyl)-2-hydroxyethane-1-sulfonamide] |
